Reference: patent publication US20140086881A1, “GOOD HEALTHY CELLS FOUND IN PROTEINS, THEIR APPLICATIONS, AND PROCESS OF MAKING A MEDIUM TO HARVEST THE CELLS” (priority 2012, published 2014)
Read-outs that look alike come from different tables or passages of the source.

Key:
HCV 2a replicon = assay: microbe, parasite or virus in culture; assay type: cell-based; details: Hepatitis C virus, read-out: EC50 (uM) 2a
Protocol: (§1) The cells are counted using hemocytometer.
(§2) Incubate plate at 5% CO2, 37° C. for 4 hours.
(§3) Dose-response curves are plotted using Prism.

HCV 1a replicon = assay: microbe, parasite or virus in culture; assay type: cell-based; details: Hepatitis C virus, read-out: EC50 (uM) 1a
Protocol: as §1, §2, §3

HCV 1b replicon = assay: microbe, parasite or virus in culture; assay type: cell-based; details: Hepatitis C virus, read-out: EC50 (uM) 1b
Protocol: as §1, §2, §3

[1] = system: Adjuvant-Induced Arthritis (AIA); assay: Adjuvant-Induced Arthritis (AIA) in Lewis rats; details: 35 days and 45 days treatment sections
atherosclerotic model = details: for Animal Wounded, Total: n = 10, reason: fighting each other; for Animal Dead, Total: n = 10 ApoE ko mice, high fat diet
Text: 10 ApoE ko mice were fed with regular chow diet and used as negative control group. 50 ApoE ko mice were fed with high fat diet (35% kcal fat, 1% cholesterol) for 8 weeks, and then the plasma samples were collected for lipid profile measurement before the treatment. 50 ApoE ko mice were assigned into 5 groups based on the fasting overnight plasma TC and HDL level.
• 23 Dec. 2011: 60 ApoE mice arrived at chempartner and were housed in the animal facility in the building #3 for the acclimation. • 6 Jan. 2012: Measured the body weight for each mouse. 50 mice were fed with high fat diet and 10 mice were fed with normal chow diet. • 2 Mar. 2012: All mice were fasted over night and plasma samples (about 300 ul whole blood) were collected for lipid profile measurement before treatment with RAAS antibody. • 19 Mar. 2012 to 6 Apr. […] 2012: All mice were fasted over night and plasma sample for each mouse (about 300 ul whole blood) was collected for lipid profile measurement after 16 weeks treatment. Blood glucose was also measured for each mouse. • 9 Jul. 2012: The study was terminated after 16 weeks treatment. Measure BW, sacrificed each mouse, dissected the aorta, heart, liver and kidney and fixed them in 4% PFA.
Antibody products were administrated by intraperitoneal injection every two days (Monday, Wednesday, and Friday). and the positive compound was administered by p.o every day.
The body weight was weighed weekly during the period of treatment.
The fasting overnight blood glucose was measured at the end of study by Roche glucometer.
About 300 ul of blood sample was collected from the orbital vein for each mouse and centrifuged at 7000 rpm for 5 min at 4° C. and the plasma lipid profile was measured by Roche Modular automatic biochemistry analyzer in DaAn Medical Laboratory
After RAAS antibody products treatment for 16 weeks, all mice were sacrificed. Measured body weight and collected blood sample for each mouse. Weighed liver weight and saved a tiny piece of liver into 4% paraformaldehyde (PFA) fixation solution for further analysis. At same time, take the photos with heart, lung, aortas and two kidneys.
1. Sacrificed the mice and dissected the heart, aorta, and arteries under dissecting microscope.
4. Stain with freshly prepared Oil Red O working solution 10 min. • 1). Oil red O stock stain: 0.5% powder in isopropanol • 2). Working solution: dilute with distilled water (3:2) and filter with membrane (0.22 um)
Scanning the glasses slides with the Aperio ScanScope system and analyze with the image proplus software to measure the area of atherosclerotic plaque lession. The results were expressed as the percentage of the total aortic surface area covered by lesions. The operation procedure of software was briefly described as follow: Converted the sys version photos into JPG version, then calibrated it and subsequently selected the red regions and then calculate the total area automatically by image proplus software.
The results were expressed as the Mean±SEM and statistically evaluated by student's t-test.
Area Percent (%)=Sum Area of Atherosclerotic Plaque (Mm^2)/Whole Area of Vascular Inner Wall (Mm^2)

HBV = HBV mouse hydrodynamic injection (HDI) model; assay type: in vivo, BALB/c mice; details: therapeutically-treated mice, from day 3 post HDI to the end
Text: Hydrodynamic injection (HDI) is an in vivo gene delivery technology. It refers to transiently transfect the mouse liver cells with a foreign gene via tail vein injection of a large volume saline containing plasmid within a few seconds. Taking the advantage of the liver-targeting manner of hydrodynamic injection, a single hydrodynamic injection of a replication-competent HBV DNA, could result in HBV replication in mouse liver shortly. This HBV hydrodynamic injection model on immunocompetent mice is a convenient and reproducible animal model for anti-HBV compound screening in vivo, which has been successfully established in WuXi ID department.
• 3.1 Hydrodynamic injection and compound administration • 3.1.1. From day −7 to day 0, all 5 mice in group 4 were administrated i.p./i.v. with test article daily for 8 days according to Table 14.2. • 3.1.2. On day 0, all groups of mice were hydrodynamicly injected via tail vein with pcDNA3.1/HBV plasmid DNA in a volume of normal saline equal to 8% of a mouse body weight. […]
• 3.2.1.1 Isolate DNA from 50 μl plasma using QIAamp 96 DNA Blood Kit. […] Run qPCR for HBV DNA quantification. a) Dilute HBV plasmid standard by 10-fold from 10^7 copies/μl to 10 copies/μl. b) Prepare qPCR mix as shown below. […]
HBV DNA quantity=DNA determined by HBV primer-DNA determined by plasmid primer. […]

HBV in HepG2.2.15 = assay: Anti-HBV potency in stable HBV cell line (HBV DNA real time PCR); assay type: cell-based; details: Hepatitis B virus
Protocol: Lamivudine is diluted with 3-fold for 9 concentrations.
i) Cell culture medium: RPM 1640-4% FBS-1% Pen/Strep-1% Glutamine ii) HepG2.2.15 cell culture: Grow the cells in T75 flask. Incubated at 37° C., 95% humidity, 5% CO2.
f) Refresh protein-containing medium on day 3 of drug treatment. g) Collect culture media from the HepG2.2.15 plates on day 6 followed by HBV DNA extraction using QIAamp 96 DNA Blood Kit (QIAGEN #51161). 2) Real time PCR for HBV DNA quantification. a) Dilute HBV plasmid standard by 10-fold from 0.1 ng/ul to 0.000001 ng/ul. b) Prepare realtime PCR mix as shown blow.
c) Add 15 ul/well PCR mix to 96-well optical reaction plates. d) Add 10 ul of the diluted plasmid standard to C12-H12. […]
3) Data analysis: A standard curve is generated by plotting Ct value vs. the amount of the HBV plasmid standard, and the quantity of each sample is estimated based on the Ct value projection on the standard curve; percent of HBV inhibition by protein or compound is calculated using the following equation: % Inh.=[1−(HBV quantity of sample−HBV quantity of HepG2 control)/(HBV quantity of 0% Inhibition control−HBV quantity of HepG2 control)]*100.

lung cancer cells = assay: KH mediums vs lung cancer cells, in-vitro well study; assay type: cell-based
Text: From which other companies in China have produced Human Albumin for use in the cell growth instead of feta bovine serum and also
The above have been discovered in In-Vitro well study but not tested for CCK8 to measure the degree of inhibition of the cancer cells by each of the mediums. Such a study has been performed on Oct. 4, 2012 it is amazing to find out that all series of medium from KH100, KH200 and KH300 have different level of effect on the inhibition of the lung cancer, leukemia, gastric and breast both solid tumors and blood cancer have been tested.

NC(=O)c1ncn([C@@H]2O[C@H](CO)[C@@H](O)[C@H]2O)n1 [Ribavirin]
EC50 (HCV 2a replicon): 37.4 µM | EC50 (HCV 1a replicon): 57.6 µM | EC50 (HCV 1b replicon): 39 µM

C[C@@H]1C[C@H]2[C@@H]3CCC4=CC(=O)C=C[C@]4(C)[C@@]3(F)[C@@H](O)C[C@]2(C)[C@@]1(O)C(=O)CO [Dex, Dexamethasone]
body weight compared with saline group [1]: reduction of body weight

APOA 1
Animal Wounded, Total (atherosclerotic model; high dose 0.1 ml i.p.): 1 | Animal Dead, Total (atherosclerotic model; high dose 0.1 ml i.p., reason: Fighting): 1 | Animal Wounded, Total (atherosclerotic model; low dose): 3 | Animal Dead, Total (atherosclerotic model; low dose, reasons: gastrorrhagia, urinary tract infection (2)): 3 | Animal Wounded, Total (atherosclerotic model; mid dose 0.075 ml i.p.): 1 | Animal Dead, Total (atherosclerotic model; mid dose 0.075 ml i.p., reason: Fighting): 1

C=C1[C@H](CO)[C@@H](O)C[C@@H]1n1cnc2c(=O)[nH]c(N)nc21 [ETV, Entecavir]
HBV replication in plasma (HBV): significant inhibition

Nc1ccn([C@@H]2CS[C@H](CO)O2)c(=O)n1 [Lamivudine]
EC50 (HBV in HepG2.2.15): 0.0062 µM

bovine human albumin: animal protein product
effect on lung cancer cells (lung cancer cells): inhibited lung cancer cell growth
